Measurements as given in patent US10513567B2, “Polycations and methods of making and using thereof” (Georgia Tech Research Corporation, priority 2016, dated 2019).

Assay: Fragmentation (hydrolysis) of WCL pyridine adducts and oligocations in deuterated aqueous buffer followed by 1H NMR
Format: physicochemical
Protocol: The fragmentation of cationic adducts was followed by ^1H NMR in deuterated buffer, with the relative concentration of each species established by integration of unique resonances. Each adduct in Table 3 and Table 4 was thus examined in three independent runs.
Each adduct dinitrate was isolated, characterized, and heated at 50° C. in deuterated buffer; following the disappearance of the adduct by NMR, first-order rate constants of fragmentation were obtained.
Using the conditions of Table 4, three additional oligocations were prepared from the bis(pyridine) linkers as shown in Table 5. […] The stabilities of these compounds toward fragmentation under aqueous conditions were assessed by NMR in deuterated buffer, following the disappearance of the thiabicyclononane C—H resonance adjacent to the pyridine group (position g in FIG. 14) and the appearance of the corresponding resonance (4.3 ppm) for the diol product 4 (FIG. 6).

Row | Compound | kfrag, pseudo first order fragmentation (50° C., deuterated buffer) | kfrag, pseudo first order fragmentation (37° C.) | krel (37° C., relative to 5i) | krel (50° C., relative to 5e)
1 | COC(=O)c1ccc[n+](C2CCC3SC2CCC3[n+]2cccc(C(=O)OC)c2)c1.O=[N+]([O-])[O-].O=[N+]([O-])[O-] (centres unmarked) [Compound 5b, 2,6-di-3-methoxycarbonylpyridinium-9-thiabicyclo[3.3.1]nonane dinitrate] | (3.03 ± 0.38) × 10^−2 h^−1 | – | – | –
2 | COC(=O)c1cc[n+](C2CCC3SC2CCC3[n+]2ccc(C(=O)OC)cc2)cc1.O=[N+]([O-])[O-].O=[N+]([O-])[O-] (centres unmarked) [Compound 5c, 2,6-di-4-methoxycarbonylpyridinium-9-thiabicyclo[3.3.1]nonane dinitrate] | (3.66 ± 0.33) × 10^−2 h^−1 | (0.16 ± 0.01) × 10^−2 h^−1 | 0.3 | –
3 | NC(=O)c1ccc[n+](C2CCC3SC2CCC3[n+]2cccc(C(N)=O)c2)c1.O=[N+]([O-])[O-].O=[N+]([O-])[O-] (centres unmarked) [Compound 5d, 2,6-di-3-carbamylpyridinium-9-thiabicyclo[3.3.1]nonane dinitrate] | (3.18 ± 0.32) × 10^−2 h^−1 | – | – | –
4 | NC(=O)c1cc[n+](C2CCC3SC2CCC3[n+]2ccc(C(N)=O)cc2)cc1.O=[N+]([O-])[O-].O=[N+]([O-])[O-] (centres unmarked) [Compound 5e, 2,6-di-4-carbamylpyridinium-9-thiabicyclo[3.3.1]nonane dinitrate] | (1.62 ± 0.10) × 10^−2 h^−1 | – | – | 1.00
5 | Brc1ccc[n+](C2CCC3SC2CCC3[n+]2cccc(Br)c2)c1.O=[N+]([O-])[O-].O=[N+]([O-])[O-] (centres unmarked) [Compound 5f, 2,6-di-3-bromopyridinium-9-thiabicyclo[3.3.1]nonane dinitrate] | (6.59 ± 0.58) × 10^−2 h^−1 | – | – | –
6 | FC(F)(F)c1ccc[n+](C2CCC3SC2CCC3[n+]2cccc(C(F)(F)F)c2)c1.O=[N+]([O-])[O-].O=[N+]([O-])[O-] (centres unmarked) [Compound 5g, 2,6-di-3-trifluoromethylpyridinium-9-thiabicyclo[3.3.1]nonane dinitrate] | (74.8 ± 5.4) × 10^−2 h^−1 | (5.87 ± 0.71) × 10^−2 h^−1 | 11 | –
7 | N#Cc1ccc[n+](C2CCC3SC2CCC3[n+]2cccc(C#N)c2)c1.O=[N+]([O-])[O-].O=[N+]([O-])[O-] (centres unmarked) [Compound 5h, 2,6-di-3-cyanopyridinium-9-thiabicyclo[3.3.1]nonane dinitrate] | (10.8 ± 0.98) × 10^−2 h^−1 | (1.14 ± 0.16) × 10^−2 h^−1 | 2.1 | –
8 | COc1cc(Br)c[n+](C2CCC3SC2CCC3[n+]2cc(Br)cc(OC)c2)c1.O=[N+]([O-])[O-].O=[N+]([O-])[O-] (centres unmarked) [Compound 5i, 2,6-di-3-bromo-5-methoxylpyridinium-9-thiabicyclo[3.3.1]nonane dinitrate] | (7.51 ± 0.53) × 10^−2 h^−1 | (0.55 ± 0.04) × 10^−2 h^−1 | 1 | –
9 | NC(=O)c1cc(Br)c[n+](C2CCC3SC2CCC3[n+]2cc(Br)cc(C(N)=O)c2)c1.O=S(=O)([O-])C(F)(F)F.O=S(=O)([O-])C(F)(F)F (centres unmarked) [Compound 5j, 2,6-di-3-bromo-5-carbamylpyridinium-9-thiabicyclo[3.3.1]nonane ditriflate] | – | (9.34 ± 0.87) × 10^−2 h^−1 | 17 | –
10 | COC(=O)c1cc(C(=O)OC)c[n+](C2CCC3SC2CCC3[n+]2cc(C(=O)OC)cc(C(=O)OC)c2)c1.O=S(=O)([O-])C(F)(F)F.O=S(=O)([O-])C(F)(F)F (centres unmarked) [Compound 5k, 2,6-di-3,5-dimethoxycarbonylpyridinium-9-thiabicyclo[3.3.1]nonane ditriflate] | – | (11.9 ± 1.13) × 10^−2 h^−1 | 22 | –
11 | COC(=O)c1cc(Br)c[n+](C2CCC3SC2CCC3[n+]2cc(Br)cc(C(=O)OC)c2)c1.O=S(=O)([O-])C(F)(F)F.O=S(=O)([O-])C(F)(F)F (centres unmarked) [Compound 5l, 2,6-di-3-bromo-5-methoxycarbonylpyridinium-9-thiabicyclo[3.3.1]nonane ditriflate] | – | (10.9 ± 1.81) × 10^−2 h^−1 | 20 | –
